From patent US9834548B2, “Pyridazine compounds as JAK inhibitors” (Portola Pharmaceuticals, Inc., priority 2014, dated 2017)

Assays:
Type in all cases: biochemical
JAK1 = JAK1 (Homo sapiens (Human), UniProt P23458); assay: Purified kinase assay (Z'-LYTE), JAK1; conditions: Table 1; read-out: JAK1 IC50
Protocol: (§1) JAK and TYK2 tyrosine phosphorylation activity is measured using the Z′-LYTE™ Technology developed by Invitrogen Corporation (Carlsbad, Calif.). For JAK1, JAK2 and JAK3 the Z′-LYTE™ Kinase Assay Kit-Tyr6 Peptide (part number PV4122) was used. For TYK2 the Z′-LYTE™ Kinase Assay Kit-Tyr6 Peptide (part number PV3192) was used. The Z′-LYTE™ biochemical assay employs a fluorescence resonance energy transfer (FRET) coupled-enzyme format and is based on the differential sensitivity of phosphorylated and non-phosphorylated peptides to proteolytic cleavage. The assay uses a synthetic peptide substrate that is labeled with a donor fluorophore (coumarin) and an acceptor fluorophore (fluorescein) that make up a FRET pair. In the primary reaction (the Kinase Reaction), the kinase transfers the γ-phosphate of ATP to a single tyrosine residue on the substrate, while the presence of a kinase inhibitor in the primary reaction suppresses phosphorylation. In the secondary reaction (the Development Reaction), a site-specific protease (the Development Reagent) is added. The development buffer quenches the Kinase Reaction, while the protease recognizes and cleaves non-phosphorylated Z′-LYTE™ peptide substrate. Cleavage disrupts FRET between the donor and acceptor fluorophores on the non-phosphorylated substrate, while uncleaved, phosphorylated substrate maintains FRET.
(§2) To test the ability of candidate molecules to inhibit JAK tyrosine phosphorylation activity, molecules are reconstituted in 100% DMSO and serially diluted 1:10 in polypropylene v-bottom microtiter plates. The candidate molecules are then diluted 1:25 into kinase buffer and 2.5 μl transferred into duplicate wells of a 384 well low volume black microtiter assay plate (Corning, USA). The final DMSO concentration in the assay is 1%. The kinase reaction contains 2.5 μl of a candidate molecule, 5 μl of catalytic domain recombinant Kinase enzyme+Tyr peptide substrate (Invitrogen, CA) and ATP (Invitrogen, CA). The kinase reaction is allowed to proceed for 1 hour at room temperature. The protease reaction is initiated by the addition of Development Reagent (Invitrogen, CA). After 1 hour incubation at room temperature the fluorescence is measured using a FlexStation plate reader (Molecular Devices, Sunnyvale, Calif.). The reader settings used are as follows: Fluorescence mode, endpoint, top read, excitation 400 nm, emission 445 nm and 520 nm, Auto Cutoff 435 nm and 515 nm, PMT sensitivity high, 6 reads per well Inhibition of JAK activity is calculated as the percent phosphorylation of substrate in the presence of inhibitor compared to the percent phosphorylation of substrate in the absence of inhibitor. IC50's were derived using Xlfit 4.3 (IDBS, UK), 4 parameter logistic model 205: Y=(A+((B−A)/(1+((C/x)^D)))).

JAK3 = JAK3 (Homo sapiens (Human), UniProt P52333); assay: Purified kinase assay (Z'-LYTE), JAK3; conditions: Table 1; read-out: JAK3 IC50
Protocol: as §1, §2

JAK2 = JAK2 (Homo sapiens (Human), UniProt O60674); assay: Purified kinase assay (Z'-LYTE), JAK2; conditions: Table 1; read-out: JAK2 IC50
Protocol: as §1, §2

Sequence of JAK3 (P52333 822-1111): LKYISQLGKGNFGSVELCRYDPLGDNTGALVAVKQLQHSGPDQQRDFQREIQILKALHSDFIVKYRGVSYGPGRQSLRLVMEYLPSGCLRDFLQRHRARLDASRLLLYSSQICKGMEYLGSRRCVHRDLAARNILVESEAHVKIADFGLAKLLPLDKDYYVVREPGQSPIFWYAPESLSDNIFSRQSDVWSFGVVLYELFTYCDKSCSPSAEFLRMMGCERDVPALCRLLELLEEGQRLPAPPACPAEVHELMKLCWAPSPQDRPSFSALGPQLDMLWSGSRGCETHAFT
Sequence of JAK1 (P23458 875-1153): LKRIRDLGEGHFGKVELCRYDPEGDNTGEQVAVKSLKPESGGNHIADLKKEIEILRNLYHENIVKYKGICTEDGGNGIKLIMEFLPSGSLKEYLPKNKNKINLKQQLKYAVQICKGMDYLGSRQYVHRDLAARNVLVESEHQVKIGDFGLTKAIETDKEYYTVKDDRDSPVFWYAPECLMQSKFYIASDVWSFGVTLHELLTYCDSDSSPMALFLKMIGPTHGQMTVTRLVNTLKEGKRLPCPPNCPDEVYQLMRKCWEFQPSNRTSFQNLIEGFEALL
Sequence of JAK2 (O60674 849-1124): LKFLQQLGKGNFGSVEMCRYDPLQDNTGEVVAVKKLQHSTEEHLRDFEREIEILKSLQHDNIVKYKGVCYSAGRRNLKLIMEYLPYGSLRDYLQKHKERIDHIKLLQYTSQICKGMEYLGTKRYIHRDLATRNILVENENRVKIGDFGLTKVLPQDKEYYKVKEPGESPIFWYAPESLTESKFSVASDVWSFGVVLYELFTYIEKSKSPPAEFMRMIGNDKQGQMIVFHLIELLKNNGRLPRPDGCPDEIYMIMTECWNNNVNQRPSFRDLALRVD

SMILES	IC50 (JAK1) [nM]	IC50 (JAK3) [nM]	IC50 (JAK2) [nM]
CCC(=O)N1CCC(c2ccc(Nc3cc(NCc4cccc(F)c4)c(C(N)=O)nn3)cc2)CC1 [Compound 26]	> 1000	10 to 100	> 1000
NC(=O)c1nnc(Nc2ccc(N3CCNCC3)cc2)cc1NC1CCCCC1 [Compound 11, 4-(cyclohexylamino)-6-((4-(piperazin-1-yl)phenyl)amino)pyridazine-3-carboxamide]	> 1000	100 to 1000	100 to 1000
Cc1cc(Nc2cc(NCc3cccc(F)c3F)c(C(N)=O)nn2)ccc1N1CCOCC1 [Compound 40]	> 1000	10 to 100	> 1000
NC(=O)c1nnc(Nc2cnn(C3CCCC3)c2)cc1NCc1cccc2ccsc12 [Compound 115]	> 1000	10 to 100	10 to 100
NC(=O)c1nnc(Nc2ccc(N3CCOCC3)cc2)cc1NCc1cccc(F)c1F [Compound 38]	> 1000	10 to 100	100 to 1000
NC(=O)c1nnc(Nc2cc(F)c(N3CCOCC3)c(F)c2)cc1NCc1cccc(F)c1F [Compound 41]	> 1000	> 1000	> 1000
NC(=O)c1nnc(Nc2ccc(N3CCNCC3)cc2)cc1NC1CCCC1 [Compound 13]	> 1000	100 to 1000	100 to 1000
NC(=O)c1nnc(Nc2cnn(CC3CCOCC3)c2)cc1NCc1cccc2ccsc12 [Compound 121]	100 to 1000	1 to 10	10 to 100
CS(=O)(=O)Cc1ccc(Nc2cc(NC3CCN(c4ccc(C#N)cn4)CC3)c(C(N)=O)nn2)cc1 [Compound 93]	10 to 100	10 to 100	10 to 100
CS(=O)(=O)Cc1ccc(Nc2cc(NCc3cccc(F)c3)c(C(N)=O)nn2)cc1 [Compound 85]	100 to 1000	10 to 100	100 to 1000
NC(=O)c1nnc(Nc2cccc(N3CCOCC3)n2)cc1NCc1cccc(F)c1 [Compound 62]	> 1000	> 1000	> 1000
CC(=O)N1CCN(c2ccc(Nc3cc(NCc4ccc(Cl)s4)c(C(N)=O)nn3)cc2)CC1 [Compound 76]	> 1000	10 to 100	> 1000
CC(=O)N1CCC(Cn2cc(Nc3cc(NCc4cccc5ccsc45)c(C(N)=O)nn3)cn2)CC1 [Compound 125]	100 to 1000	1 to 10	10 to 100
CC(=O)N1CCN(c2ccc(Nc3cc(NCc4cc(-c5cccnc5)ccc4F)c(C(N)=O)nn3)cc2)CC1 [Compound 104]	> 1000	10 to 100	100 to 1000
COc1ccccc1CNc1cc(Nc2ccc(N3CCN(C(C)=O)CC3)cc2)nnc1C(N)=O [Compound 24]	100 to 1000	10 to 100	10 to 100
CC(=O)N1CCN(c2ccc(Nc3cc(NCc4ccccc4F)c(C(N)=O)nn3)nc2)CC1 [Compound 28]	100 to 1000	1 to 10	10 to 100
NC(=O)c1nnc(Nc2ccc(N3CCNCC3)cc2)cc1NCC1CCC1 [Compound 17]	> 1000	100 to 1000	> 1000
CS(=O)(=O)Cc1ccc(Nc2cc(NCc3cccc(-c4ccncc4)c3)c(C(N)=O)nn2)cc1 [Compound 132]	> 1000	10 to 100	> 1000
CN(c1ccc(Nc2cc(NCc3cccc(F)c3)c(C(N)=O)nn2)cc1)S(C)(=O)=O [Compound 102]	> 1000	10 to 100	100 to 1000
NC(=O)c1nnc(Nc2cnccn2)cc1NCc1cccc(-n2ccnc2)c1 [Compound 111]	> 1000	100 to 1000	> 1000
CCn1cc(Nc2cc(NCc3cccc(F)c3F)c(C(N)=O)nn2)cn1 [Compound 120]	> 1000	10 to 100	100 to 1000
CN(C)C(=O)Cn1cc(Nc2cc(NCc3cccc4ccsc34)c(C(N)=O)nn2)cn1 [Compound 131]	100 to 1000	10 to 100	100 to 1000
NC(=O)c1nnc(Nc2ccc(N3CCOCC3)cn2)cc1NCc1cccc(F)c1 [Compound 64]	> 1000	1 to 10	10 to 100

Further lines, results first:

IC50 (JAK1) [nM]	IC50 (JAK3) [nM]	IC50 (JAK2) [nM]	SMILES
> 1000	10 to 100	100 to 1000	CC(C)n1cc(Nc2cc(NCc3cccc(F)c3)c(C(N)=O)nn2)cn1 [Compound 106]
> 1000	10 to 100	100 to 1000	NC(=O)c1nnc(Nc2cnn(CC3CC3)c2)cc1NCc1cccc(F)c1 [Compound 119]
> 1000	100 to 1000	> 1000	CC(=O)N1CCN(c2ccc(Nc3cc(NCc4ccccn4)c(C(N)=O)nn3)cc2)CC1 [Compound 78]
100 to 1000	1 to 10	10 to 100	CC(C)n1cc(Nc2cc(NCc3c(F)cccc3F)c(C(N)=O)nn2)cn1 [Compound 113]
> 1000	10 to 100	> 1000	CCC(=O)N1CCC(c2ccc(Nc3cc(NCc4ccccc4F)c(C(N)=O)nn3)cc2)CC1 [Compound 25]
> 1000	10 to 100	100 to 1000	CC(=O)N1CCN(c2ccc(Nc3cc(NCC4CCC4)c(C(N)=O)nn3)cc2)CC1 [Compound 16]
> 1000	10 to 100	10 to 100	NC(=O)c1nnc(Nc2ccc(N3CCOCC3)cc2)cc1NCc1cc(F)ccc1F [Compound 37]
> 1000	1 to 10	100 to 1000	CC(=O)N1CCC(Cn2cc(Nc3cc(NCc4cccc(F)c4F)c(C(N)=O)nn3)cn2)CC1 [Compound 126]
100 to 1000	1 to 10	100 to 1000	CS(=O)(=O)Cc1ccc(Nc2cc(NCc3c(F)cccc3F)c(C(N)=O)nn2)cc1 [Compound 87]
> 1000	10 to 100	100 to 1000	CC(=O)N1CCN(c2ccc(Nc3cc(NCc4cccc(C#N)c4)c(C(N)=O)nn3)cc2)CC1 [Compound 72]
> 1000	10 to 100	> 1000	CN(C(=O)C1CC1)c1ccc(Nc2cc(NCc3cccc(F)c3F)c(C(N)=O)nn2)cc1 [Compound 44]
> 1000	10 to 100	100 to 1000	CCC(=O)N1CCC(Cn2cc(Nc3cc(NCc4cccc(F)c4)c(C(N)=O)nn3)cn2)CC1 [Compound 130]
100 to 1000	10 to 100	100 to 1000	CC(C)n1cc(Nc2cc(NCc3cccc(F)c3F)c(C(N)=O)nn2)cn1 [Compound 114]
> 1000	> 1000	> 1000	CC(=O)N1CCN(c2ccc(Nc3cc(NC(C)C)c(C(N)=O)nn3)cc2)CC1 [Compound 9]
> 1000	100 to 1000	> 1000	CC(=O)N1CCN(c2ccc(Nc3cc(NCC4CCNCC4)c(C(N)=O)nn3)cc2)CC1 [Compound 63]
> 1000	10 to 100	> 1000	NC(=O)c1nnc(Nc2ccc(N3CCOCC3)c(F)c2)cc1NCc1cccc(F)c1F [Compound 43]
> 1000	10 to 100	100 to 1000	CN(C)C(=O)C1CCN(c2ccc(Nc3cc(NCc4ccccc4F)c(C(N)=O)nn3)cc2)CC1 [Compound 86]
> 1000	10 to 100	100 to 1000	CN(C)C(=O)C1CCN(c2ccc(Nc3cc(NCc4cccc(F)c4)c(C(N)=O)nn3)cc2)CC1 [Compound 90]
> 1000	10 to 100	100 to 1000	NC(=O)c1nnc(Nc2ccc(N3CCOCC3)cc2)cc1NCc1cccc(F)c1 [Compound 35]
> 1000	1 to 10	10 to 100	CCC(=O)N1CCN(c2ccc(Nc3cc(NCc4cccc(F)c4F)c(C(N)=O)nn3)cc2)CC1 [Compound 34]
> 1000	100 to 1000	100 to 1000	NC(=O)c1nnc(Nc2ccc(N3CCOCC3)cc2)cc1NC1CCC1 [Compound 6, 4-(cyclobutylamino)-6-((4-morpholinophenyl)amino)pyridazine-3-carboxamide]
> 1000	> 1000	> 1000	CC(C)Nc1cc(Nc2ccc(N3CCNCC3)cc2)nnc1C(N)=O [Compound 12]
